Patent US12629348B2, “Method and composition for treating osteoarthritis” (Vireo Systems, Inc., priority 2013, dated 2026)
“Also recorded” adds a separate entry of the source.

Legend:
[1] = test system: canines having OA; experiment: Double-blind randomized trial in OA canines: daily activity by pedometer; format: in vivo, canine; settings: 36 mg/kg/day oral
Procedure: The double-blind study was performed on a total of 30 adult canines of various breeds in five different private practice clinics. Owner consent was obtained prior to participation in the study. Each clinic was responsible for enrolling 6 canines into the study. Inclusion criteria for the study consisted of clinical assessment and radiograph confirmation of OA in at least one joint and a score of 22 or greater on the Helsinki chronic pain index (“HCPI”). Use of NSAIDs or other dietary supplements for OA were allowed, provided the current treatment regimens had not been altered for a period of at least three months. […] Canines participating in the study were also fitted with pedometers (Draco Tech International, Taiwan) to quantitatively track changes in daily activity during the course of the study. […] The pedometers were fitted onto the collars at the clinic, and owners were instructed on care and maintenance of the pedometers and provided a log book to record the daily pedometer readings. Pedometer readings were recorded on a daily basis starting one week prior to the study and continuing throughout the two-week trial period. The daily pedometer readings recorded throughout an entire week (7-day period) were used to determine the average daily activity during the baseline period (one week prior to the start of the study) and the first and second weeks of the trial. […]

[2] = test system: toll-like receptor-2 (TLR-2); experiment: TLR expression in exposed cells (real time PCR or immunofluorescent staining); format: cell-based
Excerpt: (§1) In one embodiment, the anti-inflammatory agent may include ethyl (α-guanido-methyl) ethanoate (“Alpha-GEE”). […] Toll receptors act as a key part of our body's recognition mechanism and appear to be a major factor in the onset and/or progression of various medical indications including those that involve inflammation and pain. In particular, real time PCR or immunofluorescent staining of exposed cells was used to assess expression of toll-like receptor-2 (TLR-2), TLR-3, TLR-4, and TLR-7. […] Without being bound by any particular theory, the mechanism by which TLR expression seems to be altered involves decreased pro-inflammatory mediator production in the wake of exposure to Alpha-GEE.

[3] = test system: TLR-7; experiment: as above; format: cell-based
Excerpt: as §1

[4] = test system: TLR-3; experiment: as above; format: cell-based
Excerpt: as §1

[5] = test system: TLR-4; experiment: as above; format: cell-based
Excerpt: as §1

[6] = target: cyclooxygenase-1 (COX-1) (Homo sapiens, UniProt P23219); experiment: Inhibition of cyclooxygenase-1 activity
Sequence of cyclooxygenase-1 (COX-1) (P23219 24-599, species assumed): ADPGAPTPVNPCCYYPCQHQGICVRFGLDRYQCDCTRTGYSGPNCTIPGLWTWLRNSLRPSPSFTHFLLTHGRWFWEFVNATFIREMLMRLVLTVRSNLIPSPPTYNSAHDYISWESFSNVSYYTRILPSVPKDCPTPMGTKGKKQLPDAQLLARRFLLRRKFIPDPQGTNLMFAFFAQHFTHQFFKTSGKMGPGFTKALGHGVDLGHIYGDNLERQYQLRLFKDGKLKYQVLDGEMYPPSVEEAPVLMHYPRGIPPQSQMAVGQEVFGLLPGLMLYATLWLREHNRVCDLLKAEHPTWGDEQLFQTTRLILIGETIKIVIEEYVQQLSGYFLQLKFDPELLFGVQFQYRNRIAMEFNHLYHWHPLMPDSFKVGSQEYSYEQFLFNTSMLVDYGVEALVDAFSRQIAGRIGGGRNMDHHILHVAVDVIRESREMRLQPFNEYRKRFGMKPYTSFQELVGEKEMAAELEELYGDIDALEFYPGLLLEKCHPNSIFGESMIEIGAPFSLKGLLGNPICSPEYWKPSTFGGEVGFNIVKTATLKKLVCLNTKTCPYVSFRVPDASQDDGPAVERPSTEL

[7] = test system: PGE2; experiment: Plasma PGE2 (PGE2 metabolite competitive EIA) in OA canines; format: in vivo, canine; settings: 36 mg/kg/day oral
Procedure: The double-blind study was performed on a total of 30 adult canines of various breeds in five different private practice clinics. Owner consent was obtained prior to participation in the study. Each clinic was responsible for enrolling 6 canines into the study. Inclusion criteria for the study consisted of clinical assessment and radiograph confirmation of OA in at least one joint and a score of 22 or greater on the Helsinki chronic pain index (“HCPI”). Use of NSAIDs or other dietary supplements for OA were allowed, provided the current treatment regimens had not been altered for a period of at least three months. […]
In addition to the standard blood chemistry profile, blood samples taken before and at the conclusion of the two-week trial period were analyzed for PGE2 and SAA. […] Both plasma and serum samples were centrifuged at 2000×g for 10 minutes and the plasma and serum supernatants removed and frozen at […] until analyzed for PGE2 and SAA using enzyme-linked immunosorbent assays (“HA”). […] Plasma samples were analyzed for PGE2 using the bicycle PGE2 competitive EIA kit purchased from Cayman Chemical (Ann Arbor, MI). The assay converts PGE2 metabolites into a stable derivative that is measured using EIA. Samples (100 μl) were analyzed in triplicate and PGE2 concentrations determined by use of standard curve. […]

inhibition of COX-1 activity ([6]; 0.1 μM): about 20%
inhibition of COX-1 activity ([6]; 1 μM (first of three values printed for '1 μM and 100 μM')): about 20%
inhibition of COX-1 activity ([6]; 100 μM (third of three values printed for '1 μM and 100 μM')): about 15%
concentration dependency of inhibition of COX-1 ([6]; 0.1-100 μM, FIG. 2): did not show a concentration dependency
inhibition of COX-1 activity ([6]; concentration not printed (second of three values printed for '1 μM and 100 μM')): about 15%
Substance: ethyl (α-guanido-methyl) ethanoate [Alpha-GEE]
increase in daily pedometer readings (mobility) ([1]; first week versus baseline week, p<0.05 vs placebo): approximately 20%
increase in daily pedometer readings (mobility, physical activity) ([1]; second week versus baseline week, p<0.01 vs placebo): approximately 30%
expression of TLR-2 in cells [2]: increases expression
expression of TLR-7 in cells [3]: increases expression
expression of TLR-3 in cells [4]: increases expression
expression of TLR-4 in cells [5]: increases expression
PGE2 plasma concentration, post-trial ([7]; mean ± SD after two weeks, pre-trial 268 ± 11): 264 ± 10 pg/mL
difference between pre-trial and post-trial plasma levels of PGE2 ([7]; two-week trial, 36 mg/kg/day): No significant differences; also recorded: no difference
